What was measured:
Assay type in all cases: functional
Rattus norvegicus [1] = experiment: Minimum ulcerogenic dose was evaluated 24 hours after peroral administration; value may range from 400-800
Rattus norvegicus [2] = experiment: Percent reduction in swelling of the left hind paw in rat when 100 mg/kg of dose was injected perorally which was determined in adjuvant arthritis test; details: route oral
Rattus norvegicus [3] = species on record: Rattus norvegicus; experiment: Activity relative to fenclofenac determined in adjuvant arthritis test
Rattus norvegicus [4] = experiment: Minimum ulcerogenic dose was evaluated 24 hours after peroral administration; value may range from 25-50
Rattus norvegicus [5] = experiment: Percent reduction in swelling of the left hind paw in rat determined in adjuvant arthritis test, 25 mg/kg dose was perorally; details: route oral
Rattus norvegicus [6] = experiment: Percent reduction in swelling of the left hind paw in rat when 25 mg/kg of dose was injected perorally which was determined in adjuvant arthritis test; details: route oral
Rattus norvegicus [7] = experiment: Minimum ulcerogenic dose was evaluated 24 hours after peroral administration; value may range from 100-200
Rattus norvegicus [8] = experiment: Percent reduction in swelling of the left hind paw in rat when 75 mg/kg of dose was injected perorally which was determined in adjuvant arthritis test; details: route oral
Rattus norvegicus [9] = experiment: Minimum ulcerogenic dose was evaluated 24 hours after peroral administration; value may range from 50-100
Rattus norvegicus [10] = experiment: Percent reduction in swelling of the left hind paw in rat determined in adjuvant arthritis test, 50 mg/kg dose perorally; details: route oral
Rattus norvegicus [11] = experiment: Percent reduction in swelling of the left hind paw in rat when 2 mg/kg of dose was injected perorally which was determined in adjuvant arthritis test; details: route oral
Rattus norvegicus [12] = experiment: Percent reduction in swelling of the left hind paw in rat when 35 mg/kg of dose was injected perorally which was determined in adjuvant arthritis test; details: route oral
Rattus norvegicus [13] = experiment: Minimum ulcerogenic dose was evaluated 24 hours after peroral administration; value may range from 12.5-25
Rattus norvegicus [14] = experiment: Percent reduction in swelling of the left hind paw in rat when 10 mg/kg of dose was injected perorally which was determined in adjuvant arthritis test; details: route oral
Rattus norvegicus [15] = experiment: Minimum ulcerogenic dose was evaluated 24 hours after peroral administration
Rattus norvegicus [16] = experiment: Percent reduction in swelling of the left hind paw in rat when 20 mg/kg of dose was injected perorally which was determined in adjuvant arthritis test; details: route oral
Rattus norvegicus [17] = experiment: Minimum ulcerogenic dose was evaluated 24 hours after peroral administration; value may range from 50-80
Rattus norvegicus [18] = experiment: Minimum ulcerogenic dose was evaluated 24 hours after peroral administration; value may range from 60-120
Rattus norvegicus [19] = experiment: Percent reduction in swelling of the left hind paw in rat when 40 mg/kg of dose was injected perorally which was determined in adjuvant arthritis test; details: route oral

Question: Which MUD (Rattus norvegicus [1]) does the source give for `Nc1cc(C(F)(F)F)ccc1Oc1ccccc1CC(=O)O` here?
Answer: The MUD was 400 mg/kg.

Question: And the Reduction (Rattus norvegicus [2])?
Answer: The Reduction was 36%.

Question: What about the Relative potency (Rattus norvegicus [3]) of the same compound?
Answer: The Relative potency was 2.1.

Question: Which MUD (Rattus norvegicus [4]) does the source give for `Nc1cc(Br)cc(Br)c1Oc1ccccc1CC(=O)O` here?
Answer: The MUD was 25 mg/kg.

Question: And the Reduction (Rattus norvegicus [5])?
Answer: The Reduction was 50%.

Question: And the Relative potency (Rattus norvegicus [3])?
Answer: The Relative potency was 8.6.

Question: Which results are given for `Clc1cc(Cl)c2c(c1)NCCc1ccccc1O2`?
Answer: Reduction (Rattus norvegicus [6]): 41%; Relative potency (Rattus norvegicus [3]): 2.1

Question: How did the MUD (Rattus norvegicus [7]) turn out when `O=C(O)Cc1ccccc1Oc1c(Cl)cccc1[N+](=O)[O-]` was run?
Answer: The MUD was 100 mg/kg.

Question: And the Reduction (Rattus norvegicus [8])?
Answer: Its Reduction is 45%.

Question: What about the Relative potency (Rattus norvegicus [3]) of the same compound?
Answer: The Relative potency was 2.

Question: What does the source list for `CNc1cc(Cl)cc(Cl)c1Oc1ccccc1CC(=O)OC`?
Answer: MUD (Rattus norvegicus [9]): 50 mg/kg; Reduction (Rattus norvegicus [10]): 36%; Relative potency (Rattus norvegicus [3]): 2.5

Question: With `CNc1cc(Cl)cc(Cl)c1Oc1ccccc1CC(=O)O` as the compound, how does the Reduction (Rattus norvegicus [11]) read?
Answer: Its Reduction is 22%.

Question: And the Relative potency (Rattus norvegicus [3])?
Answer: Its Relative potency is 13.

Question: With `Nc1ccccc1Oc1ccccc1CC(=O)O` as the compound, how does the Reduction (Rattus norvegicus [12]) read?
Answer: The Reduction was 2%.

Question: Which MUD (Rattus norvegicus [13]) does the source give for `Nc1cc(Cl)cc(Cl)c1Oc1ccccc1CC(=O)O` here?
Answer: Its MUD is 12.5 mg/kg.

Question: What about the Reduction (Rattus norvegicus [14]) of the same compound?
Answer: The Reduction was 41%.

Question: What about the Relative potency (Rattus norvegicus [3]) of the same compound?
Answer: Its Relative potency is 6.8.

Question: Which MUD (Rattus norvegicus [9]) does the source give for `Nc1c(Cl)c(Cl)cc(Cl)c1Oc1ccccc1CC(=O)O` here?
Answer: Its MUD is 50 mg/kg.

Question: And the Reduction (Rattus norvegicus [14])?
Answer: The Reduction was 37%.

Question: And the Relative potency (Rattus norvegicus [3])?
Answer: Its Relative potency is 11.6.

Question: Which results are given for `O=[N+]([O-])c1cccc(Cl)c1Oc1ccccc1CCO`?
Answer: MUD (Rattus norvegicus [9]): 50 mg/kg; Reduction (Rattus norvegicus [2]): 37%

Question: Which MUD (Rattus norvegicus [15]) does the source give for `O=C(Cc1ccccc1Oc1c(Cl)cccc1[N+](=O)[O-])OC1OC(=O)c2ccccc21` (configuration not stated) here?
Answer: Its MUD is greater than 800 mg/kg.

Question: What about the Reduction (Rattus norvegicus [10]) of the same compound?
Answer: The Reduction was 30%.

Question: What about the Relative potency (Rattus norvegicus [3]) of the same compound?
Answer: The Relative potency was 0.7.

Question: For `Cc1cccc(N(C)C)c1Oc1ccccc1CC(=O)O`, which MUD (Rattus norvegicus [7]) is on record?
Answer: Its MUD is 100 mg/kg.

Question: What about the Reduction (Rattus norvegicus [16]) of the same compound?
Answer: Its Reduction is 38%.

Question: What about the Relative potency (Rattus norvegicus [3]) of the same compound?
Answer: Its Relative potency is 2.1.

Question: How did the Reduction (Rattus norvegicus [6]) turn out when `Cc1cc(Cl)c2c(c1)NCCc1ccccc1O2` was run?
Answer: Its Reduction is 23%.

Question: With `Cc1cc(Cl)cc(N)c1Oc1ccccc1CC(=O)O` as the compound, how does the MUD (Rattus norvegicus [4]) read?
Answer: The MUD was 25 mg/kg.

Question: And the Reduction (Rattus norvegicus [14])?
Answer: The Reduction was 34%.

Question: What about the Relative potency (Rattus norvegicus [3]) of the same compound?
Answer: The Relative potency was 5.6.

Question: `CNc1cccc(C)c1Oc1ccccc1CC(=O)O` was tested. Which MUD (Rattus norvegicus [4]) did it give?
Answer: Its MUD is 25 mg/kg.

Question: What about the Reduction (Rattus norvegicus [5]) of the same compound?
Answer: The Reduction was 46%.

Question: And the Relative potency (Rattus norvegicus [3])?
Answer: Its Relative potency is 6.5.

Question: Which results are given for `Nc1cccc(Cl)c1Oc1ccccc1CC(=O)O`?
Answer: MUD (Rattus norvegicus [4]): 25 mg/kg; Reduction (Rattus norvegicus [5]): 36%; Relative potency (Rattus norvegicus [3]): 3.5

Question: Which MUD (Rattus norvegicus [17]) does the source give for `COC(=O)Cc1ccccc1Oc1c(N)cc(Cl)cc1Cl` here?
Answer: The MUD was 50 mg/kg.

Question: And the Reduction (Rattus norvegicus [5])?
Answer: Its Reduction is 38%.

Question: What about the Relative potency (Rattus norvegicus [3]) of the same compound?
Answer: The Relative potency was 7.5.

Question: For `Cc1c(N)c(Oc2ccccc2CC(=O)O)c(Cl)c(C)c1Cl`, which MUD (Rattus norvegicus [18]) is on record?
Answer: The MUD was 60 mg/kg.

Question: What about the Reduction (Rattus norvegicus [5]) of the same compound?
Answer: Its Reduction is 4%.

Question: Which Reduction (Rattus norvegicus [8]) does the source give for `COc1cc(Cl)cc2c1Oc1ccc(C)cc1CCN2` here?
Answer: The Reduction was 1%.

Question: What does the source list for `Cc1cccc(N)c1Oc1ccccc1CC(=O)O`?
Answer: MUD (Rattus norvegicus [1]): 400 mg/kg; Reduction (Rattus norvegicus [5]): 32%; Relative potency (Rattus norvegicus [3]): 1.9

Question: What does the source list for `NC(=O)Cc1ccccc1Oc1c(Cl)cccc1[N+](=O)[O-]`?
Answer: MUD (Rattus norvegicus [15]): >800 mg/kg; Reduction (Rattus norvegicus [10]): 36%; Relative potency (Rattus norvegicus [3]): 1.1

Question: Which Reduction (Rattus norvegicus [8]) does the source give for `CC(=O)N1CCc2ccccc2Oc2c(Cl)cc(Cl)cc21` here?
Answer: The Reduction was 10%.

Question: Which results are given for `CNc1cccc(Cl)c1Oc1ccccc1CC(=O)O`?
Answer: MUD (Rattus norvegicus [15]): <12.5 mg/kg; Relative potency (Rattus norvegicus [3]): 15

Question: `Cc1ccc2c(c1)CCNc1cc(C)cc(Cl)c1O2` was tested. Which Reduction (Rattus norvegicus [19]) did it give?
Answer: The Reduction was 19%.
